For 26 compounds, EC50 and DC50 results are on record in patent publication US20240408093A1, “HETEROBIFUNCTIONAL COMPOUNDS AND THEIR USE IN TREATING DISEASE” (HALDA THERAPEUTICS OPCO, INC., priority 2022, published 2024).

In assay [1] the target is KRAS G12C (Homo sapiens, UniProt P01116, G12C). As to the kind of experiment: KRAS G12C cellular target engagement assay (SW1573 cells). The assay is classed as cell-based. Further details: host or cells: SW1573. As to conditions: 17 hours, read-out: TE50 (the source's name). The procedure:
SW1573 cells (ATCC CRL-2170) were cultured in RPMI 1640 (Gibco A1049101), supplemented with 10% Heat-inactivated FBS (Gibco Cat. #A38400-01) and 1% Penicillin/Streptomycin (Gibco Cat. #15140-122) in an incubator set at 37° C. and 5% CO2. Cells were seeded at 100,000 cells/ml in 1 ml of complete media in a 24-well, tissue culture-treated plate (Falcon 353226) and incubated overnight. Cells were treated with increasing concentrations of compound and let incubate at 37C and 5% CO2 for 17 hours, after which media was aspirated and cells were lysed in 75 uL RIPA Lysis and Extraction Buffer (Thermo 89901) supplemented with 5 mM MgCl2, Protease and Phosphatase inhibitor cocktail (Thermo 1861281), and Universal Nuclease (Thermo 88700). Plates with RIPA were shaken at 4° C. at 600 rpm for 15 min. After shaking samples, they were collected and spun down at 21,000 g for 15 min at 4° C. Following centrifugation, ˜10 ug of lysate was added to Laemmli Sample Buffer (Bio-Rad 1610747) plus 10% beta-mercaptoethanol, boiled for 15 minutes at 65° C. and loaded onto 12% Mini-PROTEAN TGX™ Precast Protein Gels (Bio-Rad). Protein was transferred to a nitrocellulose membrane (Thermo LC2000) using the iBlot 2 Dry Blotting System (Thermo). After transfer, membranes were washed in 1× TBST (Bioland Scientific LLC TBST0103) 3× for 5 min. Following the wash, blocking buffer (Rockland MB-070) was added for 1 hour at room temperature. Primary antibodies against KRAS (LifeSpan Bio LS-C175665) and actin (Cell Signaling Technology 8457) were added overnight at 4° C. Membranes were then washed again 3× for 5 min in 1× TBST. Secondary antibodies (LI-COR 926-68072 and 926-68073) were added and shaken for 1 hr at room temperature. Membranes were then washed 3× for 5 min in 1×TBST and developed. Membranes were placed on an Odyssey imager (LI-COR).

The target in assay [2] is T1, GSPT1 (Homo sapiens, UniProt P15170+Q96SW2).
T1 construct: host or cells: HEK293 LgBiT / GSPT1 HiBiT CRISPR knock-in
T1 sequence (P15170 whole entry): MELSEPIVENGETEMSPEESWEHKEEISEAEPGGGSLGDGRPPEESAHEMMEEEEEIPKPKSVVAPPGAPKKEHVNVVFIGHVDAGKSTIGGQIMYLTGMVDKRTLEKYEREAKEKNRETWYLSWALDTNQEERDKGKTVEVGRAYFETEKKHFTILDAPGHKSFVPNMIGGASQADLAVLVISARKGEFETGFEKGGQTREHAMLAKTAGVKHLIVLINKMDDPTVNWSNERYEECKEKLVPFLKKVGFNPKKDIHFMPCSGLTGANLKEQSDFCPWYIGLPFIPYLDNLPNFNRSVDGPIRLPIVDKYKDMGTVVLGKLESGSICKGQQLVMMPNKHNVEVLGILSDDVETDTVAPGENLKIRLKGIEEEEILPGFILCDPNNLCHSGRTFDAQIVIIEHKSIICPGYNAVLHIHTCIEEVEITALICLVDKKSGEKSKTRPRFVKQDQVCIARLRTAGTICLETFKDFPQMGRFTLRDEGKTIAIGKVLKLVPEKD
T1 sequence (Q96SW2 whole entry): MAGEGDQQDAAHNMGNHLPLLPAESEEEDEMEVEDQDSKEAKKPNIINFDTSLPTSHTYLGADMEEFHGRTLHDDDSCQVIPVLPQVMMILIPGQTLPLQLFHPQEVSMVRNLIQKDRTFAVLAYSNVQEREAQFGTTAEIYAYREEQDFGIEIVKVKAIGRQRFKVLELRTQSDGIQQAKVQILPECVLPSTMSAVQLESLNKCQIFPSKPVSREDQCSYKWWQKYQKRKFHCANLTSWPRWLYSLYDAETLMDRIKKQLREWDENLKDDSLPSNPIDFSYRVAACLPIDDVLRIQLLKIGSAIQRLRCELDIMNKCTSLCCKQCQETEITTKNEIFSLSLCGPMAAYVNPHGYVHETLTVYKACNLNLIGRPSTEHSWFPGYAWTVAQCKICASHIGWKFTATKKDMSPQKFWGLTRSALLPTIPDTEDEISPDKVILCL
T1 sequence (Q16531 whole entry partner): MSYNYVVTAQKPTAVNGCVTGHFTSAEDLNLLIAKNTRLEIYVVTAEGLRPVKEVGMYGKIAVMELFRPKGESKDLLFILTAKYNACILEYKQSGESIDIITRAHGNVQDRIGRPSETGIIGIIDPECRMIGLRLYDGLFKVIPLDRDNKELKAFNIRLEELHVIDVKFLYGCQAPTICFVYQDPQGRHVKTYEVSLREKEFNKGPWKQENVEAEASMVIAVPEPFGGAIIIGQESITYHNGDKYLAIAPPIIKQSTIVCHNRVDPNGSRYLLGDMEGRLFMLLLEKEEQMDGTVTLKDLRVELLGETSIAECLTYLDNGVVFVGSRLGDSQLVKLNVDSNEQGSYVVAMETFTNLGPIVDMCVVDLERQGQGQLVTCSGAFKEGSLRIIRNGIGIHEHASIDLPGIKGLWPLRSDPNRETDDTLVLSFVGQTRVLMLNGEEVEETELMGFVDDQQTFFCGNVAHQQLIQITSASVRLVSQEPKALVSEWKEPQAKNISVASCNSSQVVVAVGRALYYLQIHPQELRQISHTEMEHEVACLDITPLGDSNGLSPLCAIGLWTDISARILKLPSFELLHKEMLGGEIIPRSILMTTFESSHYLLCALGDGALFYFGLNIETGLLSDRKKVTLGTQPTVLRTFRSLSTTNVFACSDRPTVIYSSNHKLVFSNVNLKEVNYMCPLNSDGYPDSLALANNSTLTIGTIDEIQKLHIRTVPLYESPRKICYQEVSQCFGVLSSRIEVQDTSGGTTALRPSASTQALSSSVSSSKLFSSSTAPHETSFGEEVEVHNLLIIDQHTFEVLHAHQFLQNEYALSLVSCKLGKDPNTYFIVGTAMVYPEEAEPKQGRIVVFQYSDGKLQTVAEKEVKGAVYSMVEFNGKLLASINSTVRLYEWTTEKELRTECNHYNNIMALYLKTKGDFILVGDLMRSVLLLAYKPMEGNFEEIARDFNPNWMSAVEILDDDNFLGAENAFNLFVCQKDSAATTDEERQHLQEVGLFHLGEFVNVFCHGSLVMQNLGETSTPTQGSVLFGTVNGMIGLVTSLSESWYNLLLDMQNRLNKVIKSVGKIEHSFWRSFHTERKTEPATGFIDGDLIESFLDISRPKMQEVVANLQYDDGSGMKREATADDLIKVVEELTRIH
As to the kind of experiment: GSPT1 HiBiT degradation assay. As to conditions: HEK293 LgBiT GSPT1 HiBiT cells, 6 hours. Type of assay: cell-based. In a few lines: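 HEK293 CRISPR knock-in cells expressing LgBiT and GSPT1-HiBiT were seeded at 1000 cells/well and, after 18-24 h, treated with titrated compound plus endurazine (0.5× final) at 37 °C. Luminescence read after 6 h; loss of signal reflects GSPT1 degradation, giving DC50.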
Background: With HiBiT, luminescence reflects the tagged protein that the partner subunit can reach.

The term DC50 denotes the concentration at which degradation of the target reaches its halfway point. Higher therefore signals degradation only at high concentration.

KRAS G12C, sequence (P01116 1-188 isoform P01116-2 G12C): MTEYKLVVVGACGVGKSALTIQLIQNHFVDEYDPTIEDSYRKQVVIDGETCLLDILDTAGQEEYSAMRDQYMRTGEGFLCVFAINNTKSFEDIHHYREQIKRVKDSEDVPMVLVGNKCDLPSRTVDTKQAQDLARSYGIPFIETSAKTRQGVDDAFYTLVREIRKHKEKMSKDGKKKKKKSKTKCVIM

Consider `C=C(CN1CCN(c2nc(NCc3nc4cc(C)ccc4[nH]3)n3ncc(Br)c3n2)CC1)C(=O)N1CCN(c2nc(OC[C@@H]3CCCN3C)nc3c2CCN(c2cccc4cccc(Cl)c24)C3)C[C@@H]1CC#N` [II-190], for which the EC50 in assay [1] was 250 to 5000 nM.

With `C=C(COc1ccccc1NC(=O)NCc1ccc2c(c1)CN(C1CCC(=O)NC1=O)C2=O)C(=O)N1CCN(c2nc(OC[C@H]3CCCN3C)nc3c2CCN(c2cccc4cccc(Cl)c24)C3)C[C@H]1CC#N` (some centres unmarked) [Compound I-80], the EC50 in assay [1] is under 250 nM. In assay [2], this compound had a DC50 of over 2500 nM.

For the compound `C=C(COc1cc(Cl)c(OC)cc1NC(=O)NCc1ccc2c(c1)CN(C1CCC(=O)NC1=O)C2=O)C(=O)N1CC2(CC(n3nc(-c4ccc5c(cnn5C)c4)c(-c4c(Cl)c(C)cc5[nH]ncc45)c3C)C2)C1` (centres unmarked) [Compound I-66], in assay [1], the EC50 fell in the range of 250 to 5000 nM. The compound also registered a half-maximal degradation concentration (DC50) in assay [2] of 50 to 500 nM.

As to `C=C(COc1cc(Cl)cc(NC(=O)NCc2ccc3c(c2)CN(C2CCC(=O)NC2=O)C3=O)c1)C(=O)N1CCN(c2nc(OC[C@@H]3CCCN3C)nc3c2CCN(c2cccc4cccc(Cl)c24)C3)C[C@@H]1CC#N` (some centres unmarked) [Compound I-35], in assay [1], the EC50 fell in the range of 250 to 5000 nM. For the same compound, in assay [2], the DC50 was over 2500 nM.

For `C=C(COc1cc(Cl)cc(NC(=O)NCc2ccc3c(c2)CN(C2CCC(=O)NC2=O)C3=O)c1)C(=O)N1CC2(CC(n3nc(-c4ccc5c(cnn5C)c4)c(-c4c(Cl)c(C)cc5[nH]ncc45)c3C)C2)C1` (centres unmarked) [Compound I-56], in assay [1], the EC50 lay in the range of 5000 to 10000 nM. The DC50 in assay [2] is over 2500 nM.

With `C=C(COc1ccccc1CNC(=O)NCc1ccc2c(c1)CN(C1CCC(=O)NC1=O)C2=O)C(=O)N1CCN(c2nc(OC[C@@H]3CCCN3C)nc3c2CCN(c2cccc4cccc(Cl)c24)C3)C[C@@H]1CC#N` (some centres unmarked) [Compound I-63], in assay [1], the EC50 was in the range of 250 to 5000 nM. Moreover, in assay [2], the DC50 was over 2500 nM.

For `C=C(COc1cc(C(F)(F)F)c(Cl)cc1NC(=O)NCc1ccc2c(c1)CN(C1CCC(=O)NC1=O)C2=O)C(=O)N1CCN(c2nc(OC[C@@H]3CCCN3C)nc3c2CCN(c2cccc4cccc(Cl)c24)C3)C[C@@H]1CC#N` (some centres unmarked) [Compound I-88], in assay [1], the EC50 was under 250 nM. In assay [2], this compound gave a DC50 of under 50 nM.

For the compound `C=C(COc1cc(Cl)cc(NC(=O)NCc2ccc3c(c2)CN(C2CCC(=O)NC2=O)C3=O)c1F)C(=O)N1CCN(c2nc(OC[C@@H]3CCCN3C)nc3c2CCN(c2cccc4cccc(Cl)c24)C3)C[C@@H]1CC#N` (some centres unmarked) [Compound I-84], in assay [1], the EC50 is over 10000 nM. In assay [2], this compound registered a DC50 of 50 to 500 nM.

For the compound `C=C(CN(C)c1cccc(NC(=O)NCc2ccc3c(c2)CN(C2CCC(=O)NC2=O)C3=O)c1)C(=O)N1CCN(c2nc(OC[C@@H]3CCCN3C)nc3c2CCN(c2cccc4cccc(Cl)c24)C3)C[C@@H]1CC#N` (some centres unmarked) [Compound I-58], in assay [1], the EC50 lay in the range of 5000 to 10000 nM. This compound yielded a half-maximal degradation concentration (DC50) in assay [2] of over 2500 nM.

For `C=C(CN(C(=O)NCc1ccc2c(c1)CN(C1CCC(=O)NC1=O)C2=O)c1ccc(C)c(Cl)c1)C(=O)N1C[C@@H](COc2nc(Nc3cnn(C)c3)nc3[nH]cc(Cl)c23)[C@H](OC)C1` (some centres unmarked) [Compound I-71], the DC50 in assay [2] lay in the range of 500 to 2500 nM.

Regarding `C=C(COC(=O)NCCCc1cc(Cl)cc(NC(=O)NCc2ccc3c(c2)CN(C2CCC(=O)NC2=O)C3=O)c1)C(=O)N1CCN(c2nc(OC[C@@H]3CCCN3C)nc3c2CCN(c2cccc4cccc(Cl)c24)C3)C[C@@H]1CC#N` (some centres unmarked) [Compound I-74], the EC50 in assay [1] is under 250 nM. For the same compound, the DC50 in assay [2] is 500 to 2500 nM.

Consider `C=C(COc1cc(NC(=O)NCc2ccc3c(c2)CN(C2CCC(=O)NC2=O)C3=O)cc(F)c1F)C(=O)N1CCN(c2nc(OC[C@@H]3CCCN3C)nc3c2CCN(c2cccc4cccc(Cl)c24)C3)C[C@@H]1CC#N` (some centres unmarked) [Compound I-75], for which the EC50 in assay [1] was 5000 to 10000 nM. For the same compound, in assay [2], the DC50 is over 2500 nM.

`C=C(COC(=O)NCc1cc(Cl)cc(NC(=O)NCc2ccc3c(c2)CN(C2CCC(=O)NC2=O)C3=O)c1)C(=O)N1CCN(c2nc(OC[C@@H]3CCCN3C)nc3c2CCN(c2cccc4cccc(Cl)c24)C3)C[C@@H]1CC#N` (some centres unmarked) [Compound I-73]: in assay [1], the EC50 is under 250 nM. In assay [2], this compound showed a DC50 of 50 to 500 nM.

For `C=C(COc1cc(NC(=O)NCc2ccc3c(c2F)CN(C2CCC(=O)NC2=O)C3=O)cc(C(F)(F)F)c1)C(=O)N1CCN(c2nc(OC[C@@H]3CCCN3C)nc3c2CCN(c2cccc4cccc(Cl)c24)C3)C[C@@H]1CC#N` (some centres unmarked) [Compound I-85], in assay [1], the EC50 is under 250 nM. Moreover, the 50% degradation concentration (DC50) in assay [2] was in the range of 50 to 500 nM.

Turning to `C=C(COC(=O)NCCc1ccc(Cl)cc1NC(=O)NCc1ccc2c(c1)CN(C1CCC(=O)NC1=O)C2=O)C(=O)N1CCN(c2nc(OC[C@@H]3CCCN3C)nc3c2CCN(c2cccc4cccc(Cl)c24)C3)C[C@@H]1CC#N` (some centres unmarked) [Compound I-78], the EC50 in assay [1] is under 250 nM. This compound gave a DC50 in assay [2] of 500 to 2500 nM.

For `C=C(COC(=O)NCCCc1ccc(Cl)cc1NC(=O)NCc1ccc2c(c1)CN(C1CCC(=O)NC1=O)C2=O)C(=O)N1CCN(c2nc(OC[C@@H]3CCCN3C)nc3c2CCN(c2cccc4cccc(Cl)c24)C3)C[C@@H]1CC#N` (some centres unmarked) [Compound I-79], the EC50 in assay [1] was under 250 nM. This compound came in with a DC50 in assay [2] of 500 to 2500 nM.

Take `C=C(COc1cc(Cl)c(OC)cc1NC(=O)NCc1ccc2c(c1)CN(C1CCC(=O)NC1=O)C2=O)C(=O)N1CCN(c2nc(OC[C@@H]3CCCN3C)nc3c2CCN(c2cccc4cccc(Cl)c24)C3)C[C@@H]1CC#N` (some centres unmarked) [Compound I-46]: in assay [1], the EC50 was in the range of 250 to 5000 nM. In assay [2], this compound came in with a DC50 of 500 to 2500 nM.

In the case of `C=C(COc1cc(Cl)cc(NC(=O)NCc2ccc3c(c2F)CN(C2CCC(=O)NC2=O)C3=O)c1)C(=O)N1CCN(c2nc(OC[C@@H]3CCCN3C)nc3c2CCN(c2cccc4cccc(Cl)c24)C3)C[C@@H]1CC#N` (some centres unmarked) [Compound I-116], the EC50 in assay [1] was under 250 nM. The same compound showed a DC50 in assay [2] of 500 to 2500 nM.

For `C=C(COc1ccc(CN2C(=O)CCC(N3Cc4cc(CNC(=O)Nc5ccc(C)c(Cl)c5)ccc4C3=O)C2=O)cc1)C(=O)N1CCN(c2nc(OC[C@H]3CCCN3C)nc3c2CCN(c2cccc4cccc(Cl)c24)C3)C[C@@H]1CC#N` (stereo in doubt) [Compound I-44], the EC50 in assay [1] was 250 to 5000 nM. Further, the DC50 in assay [2] is over 2500 nM.

On to `C=C(COc1c(Cl)cccc1NC(=O)NCc1ccc2c(c1)CN(C1CCC(=O)NC1=O)C2=O)C(=O)N1CCN(c2nc(OC[C@@H]3CCCN3C)nc3c2CCN(c2cccc4cccc(Cl)c24)C3)C[C@@H]1CC#N` (some centres unmarked) [Compound I-86], for which, in assay [1], the EC50 is 250 to 5000 nM. In assay [2], the DC50 was under 50 nM.

Consider `C=C(COc1c(Cl)cccc1NC(=O)NCc1ccc2c(c1)CN(C1CCC(=O)NC1=O)C2=O)C(=O)N[C@@H]1CN(c2nc(Nc3cn(C)nc3OC)c3ncn(C)c3n2)C[C@H]1F` (some centres unmarked) [Compound I-69], for which, in assay [2], the 50% degradation concentration (DC50) lay within 50 to 500 nM.

Consider `C=C(COC(=O)c1c(C)csc1NC(=O)NCc1ccc2c(c1)CN(C1CCC(=O)NC1=O)C2=O)C(=O)N1CCN(c2nc(OC[C@@H]3CCCN3C)nc3c2CCN(c2cccc4cccc(Cl)c24)C3)C[C@@H]1CC#N` (stereo partly drawn) [Compound I-72, 2-[(2S)-4-[7-(8-chloro-1-naphthyl)-2-[[(2S)-1-methylpyrrolidin-2-yl]methoxy]-6,8-dihydro-5H-pyrido[3,4-d]pyrimidin-4-yl]-2-(cyanomethyl)piperazine-1-carbonyl]allyl 2-[[2-(2,6-dioxo-3-piperidyl)-1-oxo-isoindolin-5-yl]methylcarbamoylamino]-4-methyl-thiophene-3-carboxylate], for which, in assay [1], the EC50 was 5000 to 10000 nM. The same compound gave a DC50 in assay [2] of over 2500 nM.

`C=C(COc1cc(NC(=O)NCc2ccc3c(c2)CN(C2CCC(=O)NC2=O)C3=O)cc(C(F)(F)F)c1)C(=O)N1CC2(CC(n3nc(-c4ccc5c(cnn5C)c4)c(-c4c(Cl)c(C)cc5[nH]ncc45)c3C)C2)C1` (centres unmarked) [Compound I-77]: the EC50 in assay [1] lay in the range of 250 to 5000 nM. In addition, in assay [2], the DC50 was 50 to 500 nM.

Turning to `C=C(COc1cccc(NC(=O)NCc2ccc3c(c2)CN(C2CCC(=O)NC2=O)C3=O)c1)C(=O)N1CCN(c2nc(OC[C@@H]3CCCN3C)nc3c2CCN(c2cccc4cccc(Cl)c24)C3)C[C@@H]1CC#N` (some centres unmarked) [Compound I-49], the EC50 in assay [1] is under 250 nM. The DC50 in assay [2] lay within 500 to 2500 nM.

Take `C=C(CN(C(=O)NCc1ccc2c(c1)CN(C1CCC(=O)NC1=O)C2=O)c1ccc(C)c(Cl)c1)C(=O)Nc1cccc(Oc2nc(Nc3ccc(N4CCN(C)CC4)cc3)nc3ccsc23)c1` (centres unmarked) [Compound I-70]: the DC50 in assay [2] is over 2500 nM.

For the compound `C=C(COc1cc(-c2ccccn2)ccc1CNc1nc(N[C@H](CC)CO)nc2c1ncn2C(C)C)C(=O)N1CCN(c2nc(OC[C@@H]3CCCN3C)nc3c2CCN(c2cccc4cccc(Cl)c24)C3)C[C@@H]1CC#N` [II-186], the EC50 in assay [1] fell in the range of 250 to 5000 nM.
